This is an account of results in PubChem BioAssay AID2060494 (Molecular Pharmacology Branch, DTP, NCI, 2025).
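Further: spheroids exposed to the agents for seven days before readout; percent of vehicle control viability with DMSO wells as 100%.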

The first experiment concerns 435261-313-R-J1-PDC complex spheroid viability. Description: Anticancer human tumor 435261-313-R-J1-PDC patient-derived colon adenocarcinoma cell line growth inhibition [GQUAD]. The conditions noted are these: second compound 0.316 µM; first compound 1 µM; active compounds read low. A digest of the protocol:
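Multi-cell-type spheroids of tumor cells with HUVEC and mesenchymal stem cells, treated with drug combinations. Concentrations descend in half-log steps from near clinical Cmax, or from 10 microM where Cmax is unknown; viability read-out.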
The term viability, T/C denotes the ratio of treated to control. Turning to `O=C(NO)c1cnc(N2CCN(S(=O)(=O)c3ccc4ccccc4c3)CC2)nc1` + Cc1[nH]c2ccc(F)cc2c1-c1nc2c3cccnc3c3ncccc3c2[nH]1, the viability, T/C was 36.8%.
The same measure, in the same setting: for `CC(C)n1c(=O)n(C)c2cnc3cc(F)c(-c4ccc(OCCCN5CCCCC5)nc4)cc3c21` + Cc1cnc(CNC(=O)c2c(=O)c3ccc(N4CCCN(C)CC4)nc3n3c2sc2ccccc23)cn1 the value was 49.3%; for `CC1COCCN1c1cc(-c2ccnn2C)c2ccnc(-c3ccn[nH]3)c2n1` (configuration not stated) + Cc1cnc(CNC(=O)c2c(=O)c3ccc(N4CCCN(C)CC4)nc3n3c2sc2ccccc23)cn1, 37.9%.
On the same count and under the same terms, for `CC1COCCN1c1cc(C2(S(C)(=N)=O)CC2)nc(-c2ccnc3[nH]ccc23)n1` (configuration not stated) + Cc1cnc(CNC(=O)c2c(=O)c3ccc(N4CCCN(C)CC4)nc3n3c2sc2ccccc23)cn1 the value was 55.1%; for `COc1ccc([C@@H](O)c2cc(-c3ncnc4cc(N5CCOCC5)ccc34)c(F)cc2Cl)nn1` + Cc1cnc(CNC(=O)c2c(=O)c3ccc(N4CCCN(C)CC4)nc3n3c2sc2ccccc23)cn1, 34.8%.

Staying with this experiment, now noted: second compound 0.316 µM; first compound 3.16 µM; active compounds read low.
Turning to `O=C(NO)c1cnc(N2CCN(S(=O)(=O)c3ccc4ccccc4c3)CC2)nc1` + Cc1[nH]c2ccc(F)cc2c1-c1nc2c3cccnc3c3ncccc3c2[nH]1, the viability, T/C is 0.27%.
On the same count and under the same terms, for `CC(C)n1c(=O)n(C)c2cnc3cc(F)c(-c4ccc(OCCCN5CCCCC5)nc4)cc3c21` + Cc1cnc(CNC(=O)c2c(=O)c3ccc(N4CCCN(C)CC4)nc3n3c2sc2ccccc23)cn1 the value was 42.9%.
Regarding `CC1COCCN1c1cc(-c2ccnn2C)c2ccnc(-c3ccn[nH]3)c2n1` (configuration not stated) + Cc1cnc(CNC(=O)c2c(=O)c3ccc(N4CCCN(C)CC4)nc3n3c2sc2ccccc23)cn1, the viability, T/C is 26.5%.
On the same count and under the same terms, for `CC1COCCN1c1cc(C2(S(C)(=N)=O)CC2)nc(-c2ccnc3[nH]ccc23)n1` (configuration not stated) + Cc1cnc(CNC(=O)c2c(=O)c3ccc(N4CCCN(C)CC4)nc3n3c2sc2ccccc23)cn1 the value was 44.9%; for `COc1ccc([C@@H](O)c2cc(-c3ncnc4cc(N5CCOCC5)ccc34)c(F)cc2Cl)nn1` + Cc1cnc(CNC(=O)c2c(=O)c3ccc(N4CCCN(C)CC4)nc3n3c2sc2ccccc23)cn1, 25.6%.

The experiment is the same for the next values; noted with them: second compound 0.316 µM; first compound 10 µM; active compounds read low.
Turning to `O=C(NO)c1cnc(N2CCN(S(=O)(=O)c3ccc4ccccc4c3)CC2)nc1` + Cc1[nH]c2ccc(F)cc2c1-c1nc2c3cccnc3c3ncccc3c2[nH]1, the viability, T/C was 0.1%.
With `CC(C)n1c(=O)n(C)c2cnc3cc(F)c(-c4ccc(OCCCN5CCCCC5)nc4)cc3c21` + Cc1cnc(CNC(=O)c2c(=O)c3ccc(N4CCCN(C)CC4)nc3n3c2sc2ccccc23)cn1, the viability, T/C was 30.9%.
As for `CC1COCCN1c1cc(-c2ccnn2C)c2ccnc(-c3ccn[nH]3)c2n1` (configuration not stated) + Cc1cnc(CNC(=O)c2c(=O)c3ccc(N4CCCN(C)CC4)nc3n3c2sc2ccccc23)cn1, the viability, T/C was 15.1%.
Take `CC1COCCN1c1cc(C2(S(C)(=N)=O)CC2)nc(-c2ccnc3[nH]ccc23)n1` (configuration not stated) + Cc1cnc(CNC(=O)c2c(=O)c3ccc(N4CCCN(C)CC4)nc3n3c2sc2ccccc23)cn1: the viability, T/C is 40.5%.
On the same count and under the same terms, for `COc1ccc([C@@H](O)c2cc(-c3ncnc4cc(N5CCOCC5)ccc34)c(F)cc2Cl)nn1` + Cc1cnc(CNC(=O)c2c(=O)c3ccc(N4CCCN(C)CC4)nc3n3c2sc2ccccc23)cn1 the value was 13.4%.

Still in this experiment, the particulars now being: second compound 1 µM; first compound 0.0316 µM; active compounds read low.
Consider `O=C(NO)c1cnc(N2CCN(S(=O)(=O)c3ccc4ccccc4c3)CC2)nc1` + Cc1[nH]c2ccc(F)cc2c1-c1nc2c3cccnc3c3ncccc3c2[nH]1, for which the viability, T/C was 71%.
For the compound `CC(C)n1c(=O)n(C)c2cnc3cc(F)c(-c4ccc(OCCCN5CCCCC5)nc4)cc3c21` + Cc1cnc(CNC(=O)c2c(=O)c3ccc(N4CCCN(C)CC4)nc3n3c2sc2ccccc23)cn1, the viability, T/C is 42.4%.
Consider `CC1COCCN1c1cc(-c2ccnn2C)c2ccnc(-c3ccn[nH]3)c2n1` (configuration not stated) + Cc1cnc(CNC(=O)c2c(=O)c3ccc(N4CCCN(C)CC4)nc3n3c2sc2ccccc23)cn1, for which the viability, T/C is 36.5%.
The same measure, in the same setting: the figure for `CC1COCCN1c1cc(C2(S(C)(=N)=O)CC2)nc(-c2ccnc3[nH]ccc23)n1` (configuration not stated) + Cc1cnc(CNC(=O)c2c(=O)c3ccc(N4CCCN(C)CC4)nc3n3c2sc2ccccc23)cn1 is 31.8%; for `COc1ccc([C@@H](O)c2cc(-c3ncnc4cc(N5CCOCC5)ccc34)c(F)cc2Cl)nn1` + Cc1cnc(CNC(=O)c2c(=O)c3ccc(N4CCCN(C)CC4)nc3n3c2sc2ccccc23)cn1 it is 32.3%.

Still in this experiment, the particulars now being: second compound 1 µM; first compound 0.1 µM; active compounds read low.
On to `O=C(NO)c1cnc(N2CCN(S(=O)(=O)c3ccc4ccccc4c3)CC2)nc1` + Cc1[nH]c2ccc(F)cc2c1-c1nc2c3cccnc3c3ncccc3c2[nH]1, for which the viability, T/C is 65.6%.
The same measure, in the same setting: the figure for `CC(C)n1c(=O)n(C)c2cnc3cc(F)c(-c4ccc(OCCCN5CCCCC5)nc4)cc3c21` + Cc1cnc(CNC(=O)c2c(=O)c3ccc(N4CCCN(C)CC4)nc3n3c2sc2ccccc23)cn1 is 45.1%; for `CC1COCCN1c1cc(-c2ccnn2C)c2ccnc(-c3ccn[nH]3)c2n1` (configuration not stated) + Cc1cnc(CNC(=O)c2c(=O)c3ccc(N4CCCN(C)CC4)nc3n3c2sc2ccccc23)cn1 it is 41.9%.
As to `CC1COCCN1c1cc(C2(S(C)(=N)=O)CC2)nc(-c2ccnc3[nH]ccc23)n1` (configuration not stated) + Cc1cnc(CNC(=O)c2c(=O)c3ccc(N4CCCN(C)CC4)nc3n3c2sc2ccccc23)cn1, the viability, T/C was 37.9%.
Still for that read-out and setting: the figure for `COc1ccc([C@@H](O)c2cc(-c3ncnc4cc(N5CCOCC5)ccc34)c(F)cc2Cl)nn1` + Cc1cnc(CNC(=O)c2c(=O)c3ccc(N4CCCN(C)CC4)nc3n3c2sc2ccccc23)cn1 is 42.6%.

Staying with this experiment, now noted: second compound 1 µM; first compound 0.316 µM; active compounds read low.
Turning to `O=C(NO)c1cnc(N2CCN(S(=O)(=O)c3ccc4ccccc4c3)CC2)nc1` + Cc1[nH]c2ccc(F)cc2c1-c1nc2c3cccnc3c3ncccc3c2[nH]1, the viability, T/C was 57.6%.
Same read-out and setting: the figure for `CC(C)n1c(=O)n(C)c2cnc3cc(F)c(-c4ccc(OCCCN5CCCCC5)nc4)cc3c21` + Cc1cnc(CNC(=O)c2c(=O)c3ccc(N4CCCN(C)CC4)nc3n3c2sc2ccccc23)cn1 is 45.7%; for `CC1COCCN1c1cc(-c2ccnn2C)c2ccnc(-c3ccn[nH]3)c2n1` (configuration not stated) + Cc1cnc(CNC(=O)c2c(=O)c3ccc(N4CCCN(C)CC4)nc3n3c2sc2ccccc23)cn1 it is 34.6%.
Take `CC1COCCN1c1cc(C2(S(C)(=N)=O)CC2)nc(-c2ccnc3[nH]ccc23)n1` (configuration not stated) + Cc1cnc(CNC(=O)c2c(=O)c3ccc(N4CCCN(C)CC4)nc3n3c2sc2ccccc23)cn1: the viability, T/C is 35.9%.
On the same count and under the same terms, the figure for `COc1ccc([C@@H](O)c2cc(-c3ncnc4cc(N5CCOCC5)ccc34)c(F)cc2Cl)nn1` + Cc1cnc(CNC(=O)c2c(=O)c3ccc(N4CCCN(C)CC4)nc3n3c2sc2ccccc23)cn1 is 34.8%.

The same experiment, now with this note: second compound 1 µM; first compound 1 µM; active compounds read low.
`O=C(NO)c1cnc(N2CCN(S(=O)(=O)c3ccc4ccccc4c3)CC2)nc1` + Cc1[nH]c2ccc(F)cc2c1-c1nc2c3cccnc3c3ncccc3c2[nH]1: the viability, T/C was 38.4%.
`CC(C)n1c(=O)n(C)c2cnc3cc(F)c(-c4ccc(OCCCN5CCCCC5)nc4)cc3c21` + Cc1cnc(CNC(=O)c2c(=O)c3ccc(N4CCCN(C)CC4)nc3n3c2sc2ccccc23)cn1: the viability, T/C is 48.1%.
The same measure, in the same setting: for `CC1COCCN1c1cc(-c2ccnn2C)c2ccnc(-c3ccn[nH]3)c2n1` (configuration not stated) + Cc1cnc(CNC(=O)c2c(=O)c3ccc(N4CCCN(C)CC4)nc3n3c2sc2ccccc23)cn1 the value was 26.3%; for `CC1COCCN1c1cc(C2(S(C)(=N)=O)CC2)nc(-c2ccnc3[nH]ccc23)n1` (configuration not stated) + Cc1cnc(CNC(=O)c2c(=O)c3ccc(N4CCCN(C)CC4)nc3n3c2sc2ccccc23)cn1, 41.5%.
Consider `COc1ccc([C@@H](O)c2cc(-c3ncnc4cc(N5CCOCC5)ccc34)c(F)cc2Cl)nn1` + Cc1cnc(CNC(=O)c2c(=O)c3ccc(N4CCCN(C)CC4)nc3n3c2sc2ccccc23)cn1, for which the viability, T/C was 28.4%.

Staying with this experiment, now noted: second compound 1 µM; first compound 3.16 µM; active compounds read low.
Regarding `O=C(NO)c1cnc(N2CCN(S(=O)(=O)c3ccc4ccccc4c3)CC2)nc1` + Cc1[nH]c2ccc(F)cc2c1-c1nc2c3cccnc3c3ncccc3c2[nH]1, the viability, T/C is 0.35%.
Same read-out and setting: the figure for `CC(C)n1c(=O)n(C)c2cnc3cc(F)c(-c4ccc(OCCCN5CCCCC5)nc4)cc3c21` + Cc1cnc(CNC(=O)c2c(=O)c3ccc(N4CCCN(C)CC4)nc3n3c2sc2ccccc23)cn1 is 26.1%.
`CC1COCCN1c1cc(-c2ccnn2C)c2ccnc(-c3ccn[nH]3)c2n1` (configuration not stated) + Cc1cnc(CNC(=O)c2c(=O)c3ccc(N4CCCN(C)CC4)nc3n3c2sc2ccccc23)cn1: the viability, T/C is 13.4%.
Same read-out and setting: for `CC1COCCN1c1cc(C2(S(C)(=N)=O)CC2)nc(-c2ccnc3[nH]ccc23)n1` (configuration not stated) + Cc1cnc(CNC(=O)c2c(=O)c3ccc(N4CCCN(C)CC4)nc3n3c2sc2ccccc23)cn1 the value was 31.3%.
As to `COc1ccc([C@@H](O)c2cc(-c3ncnc4cc(N5CCOCC5)ccc34)c(F)cc2Cl)nn1` + Cc1cnc(CNC(=O)c2c(=O)c3ccc(N4CCCN(C)CC4)nc3n3c2sc2ccccc23)cn1, the viability, T/C was 17.2%.

Still in this experiment, the particulars now being: second compound 1 µM; first compound 10 µM; active compounds read low.
Turning to `O=C(NO)c1cnc(N2CCN(S(=O)(=O)c3ccc4ccccc4c3)CC2)nc1` + Cc1[nH]c2ccc(F)cc2c1-c1nc2c3cccnc3c3ncccc3c2[nH]1, the viability, T/C is 0.13%.
The same measure, in the same setting: for `CC(C)n1c(=O)n(C)c2cnc3cc(F)c(-c4ccc(OCCCN5CCCCC5)nc4)cc3c21` + Cc1cnc(CNC(=O)c2c(=O)c3ccc(N4CCCN(C)CC4)nc3n3c2sc2ccccc23)cn1 the value was 5.54%; for `CC1COCCN1c1cc(-c2ccnn2C)c2ccnc(-c3ccn[nH]3)c2n1` (configuration not stated) + Cc1cnc(CNC(=O)c2c(=O)c3ccc(N4CCCN(C)CC4)nc3n3c2sc2ccccc23)cn1, 9.95%.
The same measure, in the same setting: for `CC1COCCN1c1cc(C2(S(C)(=N)=O)CC2)nc(-c2ccnc3[nH]ccc23)n1` (configuration not stated) + Cc1cnc(CNC(=O)c2c(=O)c3ccc(N4CCCN(C)CC4)nc3n3c2sc2ccccc23)cn1 the value was 26%; for `COc1ccc([C@@H](O)c2cc(-c3ncnc4cc(N5CCOCC5)ccc34)c(F)cc2Cl)nn1` + Cc1cnc(CNC(=O)c2c(=O)c3ccc(N4CCCN(C)CC4)nc3n3c2sc2ccccc23)cn1, 5.89%.

The experiment is the same for the next values; noted with them: second compound 3.16 µM; first compound 0.0316 µM; active compounds read low.
`O=C(NO)c1cnc(N2CCN(S(=O)(=O)c3ccc4ccccc4c3)CC2)nc1` + Cc1[nH]c2ccc(F)cc2c1-c1nc2c3cccnc3c3ncccc3c2[nH]1: the viability, T/C is 42.5%.
Take `CC(C)n1c(=O)n(C)c2cnc3cc(F)c(-c4ccc(OCCCN5CCCCC5)nc4)cc3c21` + Cc1cnc(CNC(=O)c2c(=O)c3ccc(N4CCCN(C)CC4)nc3n3c2sc2ccccc23)cn1: the viability, T/C was 14.6%.
`CC1COCCN1c1cc(-c2ccnn2C)c2ccnc(-c3ccn[nH]3)c2n1` (configuration not stated) + Cc1cnc(CNC(=O)c2c(=O)c3ccc(N4CCCN(C)CC4)nc3n3c2sc2ccccc23)cn1: the viability, T/C is 22.4%.
For the compound `CC1COCCN1c1cc(C2(S(C)(=N)=O)CC2)nc(-c2ccnc3[nH]ccc23)n1` (configuration not stated) + Cc1cnc(CNC(=O)c2c(=O)c3ccc(N4CCCN(C)CC4)nc3n3c2sc2ccccc23)cn1, the viability, T/C was 18.1%.
As to `COc1ccc([C@@H](O)c2cc(-c3ncnc4cc(N5CCOCC5)ccc34)c(F)cc2Cl)nn1` + Cc1cnc(CNC(=O)c2c(=O)c3ccc(N4CCCN(C)CC4)nc3n3c2sc2ccccc23)cn1, the viability, T/C was 5.04%.

Still in this experiment, the particulars now being: second compound 3.16 µM; first compound 0.1 µM; active compounds read low.
As to `O=C(NO)c1cnc(N2CCN(S(=O)(=O)c3ccc4ccccc4c3)CC2)nc1` + Cc1[nH]c2ccc(F)cc2c1-c1nc2c3cccnc3c3ncccc3c2[nH]1, the viability, T/C was 25.7%.
With `CC(C)n1c(=O)n(C)c2cnc3cc(F)c(-c4ccc(OCCCN5CCCCC5)nc4)cc3c21` + Cc1cnc(CNC(=O)c2c(=O)c3ccc(N4CCCN(C)CC4)nc3n3c2sc2ccccc23)cn1, the viability, T/C is 8.86%.
